In patent US6414014B1 (Bristol-Myers Squibb Company, priority 1992, dated 2002):

Tests used:
[1] = in vivo
Method: Patients with platinum pretreated recurrent ovarian cancer were randomized to a 135 or 175 mg/m^2 dose arm, administered as a 3-hour or 24-hour IV infusion, which was repeated every three weeks. Responses were evaluated every two cycles. All four treatment groups were matched for age, performance status, previous treatments, and time from last platinum therapy.
All rechallenge patients received a prolonged 24-hour infusion, even if the hypersensitivity reaction occurred during a 3-hour infusion. Dosage reductions in subsequent treatment courses were mandated for all patients having (1) a granulocyte count of less than 500 cells/cmm, (2) a platelet count of less than 50,000 cells/cmm for seven days or more, (3) febrile neutropenia, (4) infection, (5) hemmorage, (6) mucositis with vesiculation and/or ulcers, or (7) vomiting appearing despite anti-emitic premedication.

[2] = system: drug-refractory ovarian cancer; details: in vivo; cited from earlier work
[3] = Hematologic toxicity (myelotoxicity) in the randomized taxol study, weekly blood counts; assay type: in vivo, patients
Method: (§1) Responses were evaluated every two cycles.
(§2) Eligible patients were randomized according to a computerized randomization log. During therapy, hematology data (hemoglobin, white blood cell count, granulocytes and platelets) were collected, and toxicity assessments were continuously made. After each cycle, a physical history update was recorded, as well as tumor measurement, performance status (ECOG), hematology, chemistry (serum creatinine, billirubin, alkaline phosphatase, (SLOT (AST), CA125) and a toxicity assessment. A quality of life assessment was also made after each cycle, and every two months until six months after treatment stopped.
White blood cell (WBC) counts, absolute neutrophil count (ANC), platelet counts, and hemoglobin (Hb) concentration were the primary variables used to evaluate treatment related myelosuppression. The World Health Orgination, WHO, grades of nadir for the entire study population of 157 patients during course 1 are presented in the table below. Leukopenia and neutropenia were the most frequent and severe hemotologic adverse effects observed during the first couse of treatment. 53% (83/156) of the patients had Grade III or IV neutropenia, while 39% (61/157) had Grade III or IV leukopenia.

[4] = system: patients suffering from ovarian carcinoma; assay: Multi-center, randomized comparative study of taxol in platinum pretreated ovarian carcinoma: objective response; assay type: in vivo
Excerpt: The high degree of success, greater than 10% of objective response, to treatment by patients suffering from drug refractory ovarian carcinoma is truly astonishing, since responses to drug refractory ovarian carcinoma are extremely uncommon. While experimental data is provided herein for the successful treatment of ovarian carcinoma with taxol using the present treatment protocol, it is to be understood that the treatment protocol can be used for the treatment of other forms of cancer with taxol, such as melanoma, renal cell carcinoma, and other cancers which are treatable with taxol.
as §1
Patients with ovarian carcinoma included in the study had been treated with and were unresponsive to a minimum of one but no more than two platinum-containing chemotherapy regimens, and were required to have shown progression during or relapse after their last regimen of chemotherapy. Patients were treated every 21 days if allowed by toxicity.
While an emulsion of taxol in polyethoxylated caster oil in dehydrated alcohol is utilized as a vehicle in a preferred embodiment, it is contemplated that other pharmaceutically acceptable vehicles for taxol may be used.
This procedure enables the accurate accessment of the patient receiving the taxol.
Patients ranged between 18 and 75 years in age with an Eastern Cooperative Oncology Group, ECOG, performance status of 0, 1, or 2, and had to have recovered from all toxicities of previous treatment. Further, no prior chemotherapy or radiotherapy were allowed within four weeks prior to entry into the study (patients were also not entered into the study if there had been less than six weeks since prior mitomycin, nitrosureas, or high-dose carboplatin therapy). An adequate baseline bone marrow function was required, which was defined as a granulocyte count ≧2,000 cells/cmm and a platelet count ≧100,000 cells/cmm. Adequate hepatic and renal functions were required with normal hepatic function defined as total billirubin ≦1.5 times upper normal value and normal renal function defined as serum creatinine ≦1.5 times upper normal value. Patients with abdominal adenocarcinoma, a previous history of a trial or ventricular arrhythmias, congestive heart failure, myocardial infarction within six months preceding randomization, complete bowel obtruction, a pre-existing neuropathy <WHO grade 2, active infection, prior allergic reaction to drugs containing Cremaphor, or other serious medical condition were excluded from this study.
as §2

[5] = TOTAL, all four arms, n = 157, course 1
[6] = arm 135/3 (mg/m^2/infusion hours), n = 39, course 1
[7] = arm 135/24 (mg/m^2/infusion hours), n = 44, course 1
[8] = arm 175/3 (mg/m^2/infusion hours), n = 29, course 1
[9] = arm 175/4 (mg/m^2/infusion hours), n = 45, course 1

CC(=O)O[C@H]1C(=O)[C@@]2(C)[C@H]([C@H](OC(=O)c3ccccc3)[C@]3(O)C[C@H](OC(=O)[C@H](O)[C@@H](NC(=O)c4ccccc4)c4ccccc4)C(C)=C1C3(C)C)[C@]1(OC(C)=O)CO[C@@H]1C[C@@H]2O [taxol]
patients who required a dose reduction ([1]; female, human, 9 weeks): 17%
dose reduction required, long term infusion arms versus short term infusion arms [1]: more frequently
activity against drug-refractory ovarian cancer [2]: active agent
patients with grade 4 neutropenia ([3]; 3-hour infusion, 8/68, course 1): 12%
patients with grade 4 neutropenia ([3]; 24-hour taxol infusion, 51/88, course 1): 58%
AMC Count, WHO grade 0 nadir, patients [3, 5]: 37 (24) n (%)
AMC Count, WHO grade I nadir, patients [3, 5]: 13 (8) n (%)
AMC Count, WHO grade II nadir, patients [3, 5]: 23 (15) n (%)
AMC Count, WHO grade III nadir, patients [3, 5]: 24 (15) n (%)
AMC Count, WHO grade IV nadir, patients [3, 5]: 59 (38) n (%)
Platelet Count, WHO grade 0 nadir, patients [3, 5]: 147 (94) n (%)
Platelet Count, WHO grade I nadir, patients [3, 5]: 6 (4) n (%)
Platelet Count, WHO grade II nadir, patients [3, 5]: 2 (1) n (%)
Platelet Count, WHO grade III nadir, patients [3, 5]: 1 (1) n (%)
Platelet Count, WHO grade IV nadir, patients [3, 5]: 1 (1) n (%)
WBC Count, WHO grade 0 nadir, patients [3, 5]: 31 (20) n (%)
WBC Count, WHO grade I nadir, patients [3, 5]: 29 (18) n (%)
WBC Count, WHO grade II nadir, patients [3, 5]: 36 (23) n (%)
WBC Count, WHO grade III nadir, patients [3, 5]: 50 (32) n (%)
WBC Count, WHO grade IV nadir, patients [3, 5]: 11 (7) n (%)
patients with severe neutropenia (WHO Grade III and IV) during at least one course ([3]; all arms): 63%
AMC Count, WHO grade 0 nadir, patients [3, 6]: 18 (46) n (%)
AMC Count, WHO grade I nadir, patients [3, 6]: 8 (21) n (%)
AMC Count, WHO grade II nadir, patients [3, 6]: 8 (21) n (%)
AMC Count, WHO grade III nadir, patients [3, 6]: 4 (10) n (%)
AMC Count, WHO grade IV nadir, patients [3, 6]: 1 (3) n (%)
Platelet Count, WHO grade 0 nadir, patients [3, 6]: 36 (92) n (%)
Platelet Count, WHO grade I nadir, patients [3, 6]: 2 (5) n (%)
Platelet Count, WHO grade II nadir, patients [3, 6]: 1 (3) n (%)
Platelet Count, WHO grade III nadir, patients [3, 6]: 0 n (%)
Platelet Count, WHO grade IV nadir, patients [3, 6]: 0 n (%)
WBC Count, WHO grade 0 nadir, patients [3, 6]: 15 (38) n (%)
WBC Count, WHO grade I nadir, patients [3, 6]: 13 (33) n (%)
WBC Count, WHO grade II nadir, patients [3, 6]: 7 (18) n (%)
WBC Count, WHO grade III nadir, patients [3, 6]: 3 (8) n (%)
WBC Count, WHO grade IV nadir, patients [3, 6]: 1(3) n (%)
AMC Count, WHO grade 0 nadir, patients [3, 7]: 6 (14) n (%)
AMC Count, WHO grade I nadir, patients [3, 7]: 2 (15) n (%)
AMC Count, WHO grade II nadir, patients [3, 7]: 7 (16) n (%)
AMC Count, WHO grade III nadir, patients [3, 7]: 6 (14) n (%)
AMC Count, WHO grade IV nadir, patients [3, 7]: 23 (52) n (%)
Platelet Count, WHO grade 0 nadir, patients [3, 7]: 43 (98) n (%)
Platelet Count, WHO grade I nadir, patients [3, 7]: 1 (2) n (%)
Platelet Count, WHO grade II nadir, patients [3, 7]: 0 n (%)
Platelet Count, WHO grade III nadir, patients [3, 7]: 0 n (%)
Platelet Count, WHO grade IV nadir, patients [3, 7]: 0 n (%)
WBC Count, WHO grade 0 nadir, patients [3, 7]: 4 (9) n (%)
WBC Count, WHO grade I nadir, patients [3, 7]: 5 (11) n (%)
WBC Count, WHO grade II nadir, patients [3, 7]: 11 (25) n (%)
WBC Count, WHO grade III nadir, patients [3, 7]: 20 (46) n (%)
WBC Count, WHO grade IV nadir, patients [3, 7]: 4 (9) n (%)
AMC Count, WHO grade 0 nadir, patients [3, 8]: 11 (38) n (%)
AMC Count, WHO grade I nadir, patients [3, 8]: 2 (7) n (%)
AMC Count, WHO grade II nadir, patients [3, 8]: 3 (10) n (%)
AMC Count, WHO grade III nadir, patients [3, 8]: 6 (21) n (%)
AMC Count, WHO grade IV nadir, patients [3, 8]: 7 (24) n (%)
Platelet Count, WHO grade 0 nadir, patients [3, 8]: 29 (100) n (%)
Platelet Count, WHO grade I nadir, patients [3, 8]: 0 n (%)
Platelet Count, WHO grade II nadir, patients [3, 8]: 0 n (%)
Platelet Count, WHO grade III nadir, patients [3, 8]: 0 n (%)
Platelet Count, WHO grade IV nadir, patients [3, 8]: 0 n (%)
WBC Count, WHO grade 0 nadir, patients [3, 8]: 11 (38) n (%)
WBC Count, WHO grade I nadir, patients [3, 8]: 6 (21) n (%)
WBC Count, WHO grade II nadir, patients [3, 8]: 7 (24) n (%)
WBC Count, WHO grade III nadir, patients [3, 8]: 5 (17) n (%)
WBC Count, WHO grade IV nadir, patients [3, 8]: 0 — n (%)
AMC Count, WHO grade 0 nadir, patients [3, 9]: 2 (5) n (%)
AMC Count, WHO grade I nadir, patients [3, 9]: 1 (2) n (%)
AMC Count, WHO grade II nadir, patients [3, 9]: 5 (11) n (%)
AMC Count, WHO grade III nadir, patients [3, 9]: 8 (18) n (%)
AMC Count, WHO grade IV nadir, patients [3, 9]: 28 (63) n (%)
Platelet Count, WHO grade 0 nadir, patients [3, 9]: 39 (87) n (%)
Platelet Count, WHO grade I nadir, patients [3, 9]: 3 (7) n (%)
Platelet Count, WHO grade II nadir, patients [3, 9]: 1 (2) n (%)
Platelet Count, WHO grade III nadir, patients [3, 9]: 1 (2) n (%)
Platelet Count, WHO grade IV nadir, patients [3, 9]: 1 (2) n (%)
WBC Count, WHO grade 0 nadir, patients [3, 9]: 1 (2) n (%)
WBC Count, WHO grade I nadir, patients [3, 9]: 5 (11) n (%)
WBC Count, WHO grade II nadir, patients [3, 9]: 11 (25) n (%)
WBC Count, WHO grade III nadir, patients [3, 9]: 22 (49) n (%)
WBC Count, WHO grade IV nadir, patients [3, 9]: 6 (13) n (%)
severe leukopenia (grade 3 and grade 4 pooled), 24-hour versus 3-hour infusion ([3]; course 1): more frequently
patients with Grade III or IV leukopenia ([3]; course 1, 61/157, all arms): 39%
patients with Grade III or IV neutropenia ([3]; course 1, 83/156, all arms): 53%
patients with severe thrombocytopenia ([3]; course 1, two patients, all arms): 1%
incidence of severe neutropenia ([3]; high dose arms, 55/74): 74%
incidence of severe neutropenia ([3]; long-term infusion arms): 85%
anemia of any grade in patients with normal baseline Hb values ([3]; long-term infusion, 26/55): 47%
incidence of severe neutropenia ([3]; low dose arms, 43/83): 52%
anemia of any grade in patients with normal baseline Hb values ([3]; short-term infusion): 28%
incidence of severe neutropenia ([3]; short-term infusion arms): 32%
stabilization of disease, patients with an early relapse after platinum [4]: 53%
response to taxol in patients who had progressed on previous platinum containing chemotherapy ([4]; 3 out of 46): 7%
response to taxol in patients considered resistant to platinum therapy ([4]; 14/114, progression on therapy or relapse within six months): 13%
objective response rate, not evaluated and unevaluable patients excluded ([4]; 22/135 patients): 16%
stabilization of disease, patients with disease truly refractory to platinum ([4]; 24/46): 52%
response to taxol, platinum resistant patients with one previous regimen of platinum ([4]; in vivo): 15%
response to taxol, platinum resistant patients with two previous regimens of platinum ([4]; in vivo): 10%
patients with stable disease continued on taxol ([4]; of 157 patients): 51 patients
